Assay results: patent US7462605B2, “Phosphoramidate compounds and methods of use” (Celmed Oncology (USA), Inc., priority 2002, dated 2008)

Legend:
[1] = target: T1, rHuTS (recombinant human thymidylate synthase) (Homo sapiens, UniProt P04818); assay: Enzyme kinetics of rHuTS with dUMP and BVdUMP; type: biochemical
T1 construct: His tag (from pET-28a(+)) (N); made in house; host or cells: E. coli BL21 (DE3)/pET-28a(+)
Description: Enzyme Preparation. Cloned human thymidylate synthase plasmid pBCHTS was subcloned into E. coli. BL21 (DE3)/pET-28a(+) (Novagen) using the Ndel ñSacI insertion site, in order to add an amino terminal His tag. Enzyme was expressed in E. coli. by induction with IPTG, and purified by affinity chromatography on a Ni^2+ His Bind metal chelation resin (Novagen). The column Ni^2+ His Bind metal chelation column was washed with 20 mM Tris pH 7.9, 5 mM imidazole, 0.5M NaCl; thymidylate synthase activity was eluted with 20 mM Tris pH 7.9, 60 mM imidazole, 0.5M NaCl.
(§1) Enzyme Assays and Kinetic Measurements. Thymidylate synthase assays were done in 96 well Costar UV transparent plates in a reaction volume of 200 μL, consisting of 40 mM Tris pH 7.5, 25 mM MgCl2, 1 mM EDTA, 25 mM-mercaptoethanol, 125M dUMP, and 65 μM N5, N10-methylene tetrahydrofolate indicated. Tetrahydrofolate stock solutions were prepared by dissolving tetrahydrofolic acid (Sigma) directly into 0.2M Tris pH 7.5, 0.5 M-mercaptoethanol; stock solutions were stored at −80° C. N5, N10-methylene tetrahydrofolate was prepared by adding 12 μl of 3.8% formaldehyde to 1 ml of a 0.65 mM solution of tetrahydrofolate and incubating for 5 minutes at 37° C. N5, N10-methylene tetrahydrofolate was kept on ice and used within 2 hours of preparation.
Enzyme kinetic constants (Km and Vmax) were determined for the human thymidylate synthase substrates dUMP and BVdUMP using the enzyme assay conditions described above. The initial rates of the enzyme reactions was determined by measuring the increase in A340 for the reaction with dUMP, and decrease in A294 for the reaction with BVdUMP. The catalytic efficiency of the enzyme (Kcat/Km) was calculated from the kinetic constants Km and Vmax.

rHuTS [2] = target: T2, rHuTS (Homo sapiens, UniProt P04818); assay: Inhibition of rHuTS reactions by Tomudex and 5-FdUMP (initial rates); type: biochemical; conditions: 30° C., fluorescence 340/595 nm
T2 construct: His tag (from pET-28a(+)) (N); made in house; host or cells: E. coli BL21 (DE3)/pET-28a(+)
T2 sequence (P04818 whole entry): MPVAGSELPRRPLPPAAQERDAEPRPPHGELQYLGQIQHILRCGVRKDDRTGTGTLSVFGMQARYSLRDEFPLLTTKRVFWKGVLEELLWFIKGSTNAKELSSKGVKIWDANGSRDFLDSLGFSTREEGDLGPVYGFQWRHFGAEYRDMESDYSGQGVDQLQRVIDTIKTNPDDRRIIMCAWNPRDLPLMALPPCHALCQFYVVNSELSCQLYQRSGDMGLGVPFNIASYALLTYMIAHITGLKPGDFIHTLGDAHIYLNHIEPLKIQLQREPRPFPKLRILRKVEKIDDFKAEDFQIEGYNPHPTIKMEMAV
Description: as §1
Conversion of BVdUMP to fluorescent product(s) by thymidylate synthase was measured in 200 μl thymidylate synthase reactions containing 125M BVdUMP in 96 well Dynex Microfluor Black “U” bottom microtiter plates using an excitation wavelength of 340 nm and emission wavelength of 595 nm. Fluorescence was measured with a Tecan Spectrafluor Plus fluorimeter.

rHuTS [3] = target: T2, rHuTS; assay: Preincubation of rHuTS with BVdUMP (enzyme inactivation); type: biochemical; conditions: 20 hour incubation with 125 μM BVdUMP, then dUMP as substrate
Description: Human thymidylate synthase was pre-incubated in reaction mixtures with and without 125 μM BVdUMP. After 20 hours, BVdUMP was added to a concentration of 125 μM, dUMP to a final concentration of 125 μM, and N5, N10-methylene tetrahydrofolate was added to 70 μM. Thymidylate synthase activity was determined by measuring the increase in A340. Solid circles (preincubated reaction), Open circles (no preincubation).
To help further clarify this situation, an extended incubation of rHuTS with BVdUMP was done in order to measure any inactivation that may occur over a period of time longer than that in which the kinetics were performed (FIG. 2).

Lactobacillus casei TS = target: T3, Lactobacillus casei TS (Lacticaseibacillus casei, UniProt P00469); conditions: cited from earlier work
T3 sequence (P00469 1-316): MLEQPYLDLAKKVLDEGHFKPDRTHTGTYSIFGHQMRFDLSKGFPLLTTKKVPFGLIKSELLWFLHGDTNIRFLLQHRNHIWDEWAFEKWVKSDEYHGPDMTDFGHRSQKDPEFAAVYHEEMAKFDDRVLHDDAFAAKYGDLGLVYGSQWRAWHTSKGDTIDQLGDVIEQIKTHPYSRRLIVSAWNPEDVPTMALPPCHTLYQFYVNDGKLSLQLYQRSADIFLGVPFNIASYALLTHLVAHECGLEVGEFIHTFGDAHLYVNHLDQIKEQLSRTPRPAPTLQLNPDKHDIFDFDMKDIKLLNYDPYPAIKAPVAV

T1 sequence (P04818 whole entry): as the sequence (P04818 whole entry) above

SMILES: O=c1[nH]c(=O)n([C@H]2C[C@H](O)[C@@H](COP(=O)(O)O)O2)cc1/C=C/Br [BVdUMP, Bromovinyl, 2′-Deoxyuridine Monophosphate]
- Kcat ([1]; rHuTS): 0.0067 s⁻¹
- Ki ([1]; rHuTS, dUMP reaction, read-out: Kl (of BVdUMP)): 4.5 µM
- Km ([1]; rHuTS, substrate): 16 µM
- improved efficiency of conversion of BVdUMP, human enzyme vs L. casei enzyme ([1]; relative to endogenous substrate dUMP): > 6.4 fold
- initial rate of rHuTS reaction, No Inhibitor (rHuTS [2]; BVdUMP + THF): 109 ± 16 RFU/min
- initial rate of rHuTS reaction, No Inhibitor (rHuTS [2]; BVdUMP − THF): 75 ± 11 RFU/min
- inactivation of rHuTS (rHuTS [3]): little or no enzymatic inactivation
- Kcat (Lactobacillus casei TS): 0.018 s⁻¹
- Ki (Lactobacillus casei TS; dUMP reaction, read-out: Kl (of BVdUMP)): 0.6 µM
- Km (Lactobacillus casei TS; substrate): 3.3 µM
